For one test, the target named is T1, FLT3 D835Y (Homo sapiens, UniProt P36888, D835Y).
T1 construct: host or cells: E. coli BL21-derived host (T7 phage) or HEK-293
T1 sequence (P36888 610-943 D835Y limits assumed): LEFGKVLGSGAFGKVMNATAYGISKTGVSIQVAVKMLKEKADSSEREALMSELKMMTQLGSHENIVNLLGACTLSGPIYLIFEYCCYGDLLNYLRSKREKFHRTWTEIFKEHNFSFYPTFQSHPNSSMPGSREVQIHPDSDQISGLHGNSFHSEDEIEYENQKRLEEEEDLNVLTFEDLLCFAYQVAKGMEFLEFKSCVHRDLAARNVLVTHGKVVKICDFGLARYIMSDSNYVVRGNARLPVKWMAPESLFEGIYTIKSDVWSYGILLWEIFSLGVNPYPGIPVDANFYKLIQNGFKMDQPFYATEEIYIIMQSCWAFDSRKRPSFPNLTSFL
In words: KINOMEscan KdElect competitive binding assay, FLT3 D835Y. The note with it: tosylate salt. An excerpt: (§1) Competitive binding assay.
(§2) The lysates were then centrifuged and filtered.

A further test concerns the target T2, FLT3 (ITD, D835V) (Homo sapiens, UniProt P36888, D835V, form not given).
T2 construct: fused on or other part: DNA tag / T7 phage display tag for qPCR detection
T2 sequence (P36888 1-993 D835V): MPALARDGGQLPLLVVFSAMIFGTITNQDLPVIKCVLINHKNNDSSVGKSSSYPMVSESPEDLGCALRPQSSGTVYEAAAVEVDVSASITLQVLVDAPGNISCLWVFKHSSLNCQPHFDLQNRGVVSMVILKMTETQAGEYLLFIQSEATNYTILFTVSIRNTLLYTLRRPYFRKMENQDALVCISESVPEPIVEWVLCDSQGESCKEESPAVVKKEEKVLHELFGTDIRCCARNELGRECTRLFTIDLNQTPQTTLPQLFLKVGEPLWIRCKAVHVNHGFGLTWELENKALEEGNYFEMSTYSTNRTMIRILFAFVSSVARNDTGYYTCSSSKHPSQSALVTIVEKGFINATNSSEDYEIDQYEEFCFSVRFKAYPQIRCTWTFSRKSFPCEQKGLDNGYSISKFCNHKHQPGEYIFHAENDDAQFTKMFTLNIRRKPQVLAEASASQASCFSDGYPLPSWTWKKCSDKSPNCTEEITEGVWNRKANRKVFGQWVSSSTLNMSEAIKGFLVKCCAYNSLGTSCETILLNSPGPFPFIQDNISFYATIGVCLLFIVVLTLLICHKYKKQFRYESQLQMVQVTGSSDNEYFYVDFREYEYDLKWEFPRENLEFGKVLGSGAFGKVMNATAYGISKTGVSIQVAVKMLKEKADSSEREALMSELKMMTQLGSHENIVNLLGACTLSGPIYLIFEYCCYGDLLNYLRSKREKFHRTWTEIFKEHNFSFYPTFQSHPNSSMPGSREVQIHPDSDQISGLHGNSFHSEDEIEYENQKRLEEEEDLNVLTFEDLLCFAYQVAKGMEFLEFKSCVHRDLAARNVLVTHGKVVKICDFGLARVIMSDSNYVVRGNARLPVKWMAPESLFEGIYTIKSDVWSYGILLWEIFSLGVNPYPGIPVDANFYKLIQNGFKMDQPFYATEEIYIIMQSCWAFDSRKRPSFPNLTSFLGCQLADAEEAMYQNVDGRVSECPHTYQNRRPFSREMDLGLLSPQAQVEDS
As to the kind of experiment: KINOMEscan KdElect competitive binding assay, dual mutant FLT3 (ITD, D835V). The note with it: tosylate salt; read-out: Kd, FLT3 (ITD, D835V) double mutant.
Text: as §1, §2

Another test concerns the target T3, FLT3 (ITD, F691I) (Homo sapiens, UniProt P36888).
T3 construct: fused on or other part: DNA tag / T7 phage display tag for qPCR detection
As to the kind of experiment: KINOMEscan KdElect competitive binding assay, dual mutant FLT3 (ITD, F691I). The note with it: tosylate salt; read-out: Kd, FLT3 (ITD, F691I) double mutant.
Text: as §1, §2

The next test addresses T4, FLT3 TKD mutation D835Y (Homo sapiens, UniProt P36888, D835Y).
T4 construct: purchased Millipore
T4 sequence (P36888 27-993 D835Y): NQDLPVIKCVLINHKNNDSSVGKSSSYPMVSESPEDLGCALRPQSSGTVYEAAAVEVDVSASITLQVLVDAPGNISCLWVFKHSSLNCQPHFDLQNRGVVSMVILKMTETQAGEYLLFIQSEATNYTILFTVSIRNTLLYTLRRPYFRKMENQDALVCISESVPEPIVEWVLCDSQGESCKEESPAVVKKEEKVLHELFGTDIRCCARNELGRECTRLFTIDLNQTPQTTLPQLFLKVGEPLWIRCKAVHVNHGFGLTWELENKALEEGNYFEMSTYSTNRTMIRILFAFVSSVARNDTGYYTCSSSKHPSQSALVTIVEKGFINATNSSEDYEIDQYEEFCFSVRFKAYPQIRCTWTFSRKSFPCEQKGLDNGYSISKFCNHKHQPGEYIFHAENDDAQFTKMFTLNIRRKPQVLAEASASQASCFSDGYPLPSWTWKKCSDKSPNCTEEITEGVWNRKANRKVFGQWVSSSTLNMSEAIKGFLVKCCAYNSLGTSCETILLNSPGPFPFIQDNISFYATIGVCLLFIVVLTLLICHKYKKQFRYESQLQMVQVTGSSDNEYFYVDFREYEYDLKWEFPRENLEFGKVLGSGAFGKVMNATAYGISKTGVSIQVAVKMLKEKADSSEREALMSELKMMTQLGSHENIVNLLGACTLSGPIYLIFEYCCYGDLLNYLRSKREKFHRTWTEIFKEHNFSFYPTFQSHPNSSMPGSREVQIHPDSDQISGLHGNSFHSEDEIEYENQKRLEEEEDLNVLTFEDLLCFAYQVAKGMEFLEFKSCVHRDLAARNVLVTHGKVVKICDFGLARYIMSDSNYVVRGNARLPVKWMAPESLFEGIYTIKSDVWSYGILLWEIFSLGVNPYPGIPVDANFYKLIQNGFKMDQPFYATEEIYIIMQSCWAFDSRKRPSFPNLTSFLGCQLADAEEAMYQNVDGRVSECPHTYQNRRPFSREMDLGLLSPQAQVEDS
In words: Direct enzyme phosphorylation assay (Millipore Kinase IC50 Profiler), FLT3 D835Y. It counts as biochemical. To be noted: tosylate salt; n=2; read-out: IC50 against the FLT3 TKD mutation D835Y. The protocol:
Direct enzyme phosphorylation assay. The Millipore Kinase IC50 Profiler assay was used to screen the present invention against a panel of normal FLT3 and mutated FLT3 kinases. For assays of both kinases, the FLT3 enzyme was incubated with 8 mM of 3-(N-morpholino)propanesulfonic acid (MOPS) at a pH of 7.0, 0.2 mM Ethylenediaminetetraacetic acid (EDTA), 50 uM, a synthetic Abl peptide substrate […] (SEQ ID NO: 1), 10 mM MgAcetate and [γ-^33P-ATP]. The reaction was initiated by the addition of MgATp mix. The reaction mixture was incubated for 40 minutes at room temperature and halted by the addition of 3% phosphoric acid solution. 10 uL of the reaction solution was spotted on P30 filtermat and washed three times in 75 mM phosphoric acid for 5 minutes and then once in methanol prior to drying and scintillation counting. The scintillation values for each replicate, including positive and negative controls, were analyzed using XLFit version 5.1 to determine the IC50 values for the present invention against normal and mutated FLT3.

The Kd is the equilibrium constant for the complex coming apart. The term IC50 denotes the concentration at which inhibition is half-maximal. `COCCOc1ccc2c(c1)ncn2-c1ccc2cccc(N3CCC(N)CC3)c2n1` [CP-673,451]: the Kd on FLT3 D835Y amounted to 0.1 nM; at FLT3 (ITD, D835V), 0.015 nM; at FLT3 (ITD, F691I) it was 0.18 nM. For the same molecule, on FLT3 TKD mutation D835Y, the 50% inhibitory concentration (IC50) turned out to be 3 nM.

The values above are taken from patent US10463658B2, “Method of inhibiting FLT3 kinase” (AROG Pharmaceuticals, LLC, priority 2013, dated 2019).
